Legend:
Format in all cases: cell-based
[1] = target: T1, MCL-1 protein (Homo sapiens, UniProt Q07820); test: DMS 114 cells: MCL-1 protein degradation, Western blot; parameters: endogenous in cells; conditions: DMS 114 cell line, 6 h treatment, 1 μM compound, vs DMSO
Method: The effect of various compounds of the invention on MCL-1 protein degradation in the DMS 114 cell line was investigated, using the degradation assay protocol below.
DMS 114 cells were maintained in Waymouth's MB 752/1 medium, supplemented with penicillin/streptomycin and 10% Fetal Bovine Serum (FBS).
(§1) Compound stocks were pre-diluted in DMSO and added directly to the cells growth medium (final DMSO concentration: 0.5%).
DMS 114 cells were detached, collected, centrifuged (250 rcf, 5 min), resuspended in growth medium containing 10% FBS and counted. Cell suspension was then adjusted to 0.25×10^6 cell/ml using growth medium containing 10% FBS. Afterwards, 0.5×10^6 cells were seeded on 6-well plates in 2 mL of medium per well. Plates were then place in the incubator at 37° C. until treatment. Next day, compounds in appropriate concentrations were added to the wells and the plates incubated for additional 6 or 24 hours. DMSO was used as control (final concentration 0.5%).
(§2) Following the treatment with the compounds, cells were washed on the plates, lysed with the lysis buffer (2% SDS, 50 mM Tris, pH 8.0, 100 U/ml Pierce Universal Nuclease for Cell Lysis, complete EDTA-free Protease Inhibitor Cocktail) and incubated on ice for 45 min. The amount of protein was determined via BCA assay, and the equal quantity of each sample was loaded on the precast gel for the protein separation. Following the electrophoresis and transfer to the membrane, the membrane was stained with Ponceau (0.1% (w/v) Ponceau in 5% acetic acid). After total protein detection, the stain was washed out using TBST. After the antibody staining for MCL-1, PARP, cleaved Caspase 3 and α-tubulin, the membranes were washed and signals developed.
(§3) Densitometric values for MCL-1 were normalized to total protein level (the Ponceau Staining). [%] of protein reduction is calculated in comparison to the cells treated with DMSO, which stand for 0%.
The results for the 6 h treatment with 1 μM compounds are shown in Table 10, using the following labels: • <50% for 0-49% of MCL-1 protein reduction, • ≥50% for 50-74% of MCL-1 protein reduction, • ≥75% for 75-100% of MCL-1 protein reduction.

[2] = target: T1, MCL-1 protein; test: OPM-2 cells: MCL-1 protein degradation, Western blot; parameters: endogenous in cells; host or cells: OPM-2; conditions: OPM-2 cell line, 6 h treatment, 100 nM compound, vs DMSO
Description: The effect of various compounds of the invention and the reference compounds on MCL-1 protein degradation in the OPM-2 cell line was investigated, using the degradation assay protocol below.
OPM-2 cells were maintained in RPMI-1640 medium, supplemented with penicillin/streptomycin and 10% Fetal Bovine Serum (FBS). During the treatment, FBS concentration was reduced to 1%.
as §1
OPM-2 cells were collected, centrifuged (250 rcf, 5 min), resuspended in a growth medium containing 1% FBS and counted. The cell suspension was then adjusted to 1×10^6 cell/ml using a growth medium containing 1% FBS. Afterwards, 0.5×10^6 cells were seeded on 24-well plates in 0.5 mL of medium per well. Immediately after seeding cells, compounds in appropriate concentrations were added to the cell culture medium.
as §2, with “collected from” for “washed on”, “plates and suspended in a” for “plates, lysed with the”, “MCL-1” for “MCL-1, PARP, cleaved Caspase 3”
as §3
The results for the 6 h treatment with 100 nM compounds are shown in Table 9, using the following labels: • <30% for 0-29% of MCL-1 protein reduction, • ≥30% for 30-49% of MCL-1 protein reduction, • ≥50% for 50-100% of MCL-1 protein reduction.

[3] = target: T1, MCL-1 protein; test: Dose-dependent MCL-1 protein degradation and induction of apoptosis in cancer cells, Western blot; parameters: endogenous in cells; host or cells: OPM-2, MV-4-11, DMS 114; conditions: for degradation of MCL-1 protein and apoptosis of OPM2 cells compared to dMCL1-2 and C3: FIG. 2 and FIG. 3
Method: The experiments were performed as described for the “OPM-2 cells: MCL-1 protein degradation, Western blot” and “DMS 114 cells: MCL-1 protein degradation, Western blot”.
In addition to MCL-1 and α-Tubulin, PARP and cleaved caspase-3 were detected to monitor apoptosis.
FIG. 2 presents the results of MCL-1 protein degradation and induction of apoptosis for the OPM-2 cells treated with 204 or 215 at 0.01, 0.1 or 1 μM concentration for 6 hours or 24 hours, as indicated.
FIG. 3A presents the results of MCL-1 protein degradation and induction of apoptosis for the OPM-2 cells treated with 204 and control compounds dMCL1-2 (Papatzimas et al., J. Med. Chem. 2019, 62, 11, 5522-5540) at 0.01, 0.03, 0.1, 0.3 or 1 μM concentration for 3 hours, 6 hours or 24 hours, as indicated.
FIG. 3B presents the results of MCL-1 protein degradation and induction of apoptosis for the MV-4-11 cells treated with 204 and control compounds C3 (Wang Z et al., J. Med. Chem. 2019, 62, 17, 8152-8163) at 0.1, 1 or 10 μM concentration for 24 hours, as indicated.
FIG. 3C presents the results of MCL-1 protein degradation and induction of apoptosis for the OPM-2 cells treated with 220, 268, 346 and control compounds dMCL1-2 at 0.03, 0.1, 0.3, 1 μM concentration for 6 hours, as indicated.
FIG. 3D presents the results of MCL-1 protein degradation and induction of apoptosis for the OPM-2 cells treated with 220, 342 at 0.1, 1, 10 μM concentration for 6 hours, as indicated.
FIG. 3E presents the results of MCL-1 protein degradation and induction of apoptosis for the DMS 114 cells treated with 204, 220, 268, 346 at 0.1, 1, 10 μM concentration for 6 hours, as indicated.

T1 sequence (Q07820 whole entry): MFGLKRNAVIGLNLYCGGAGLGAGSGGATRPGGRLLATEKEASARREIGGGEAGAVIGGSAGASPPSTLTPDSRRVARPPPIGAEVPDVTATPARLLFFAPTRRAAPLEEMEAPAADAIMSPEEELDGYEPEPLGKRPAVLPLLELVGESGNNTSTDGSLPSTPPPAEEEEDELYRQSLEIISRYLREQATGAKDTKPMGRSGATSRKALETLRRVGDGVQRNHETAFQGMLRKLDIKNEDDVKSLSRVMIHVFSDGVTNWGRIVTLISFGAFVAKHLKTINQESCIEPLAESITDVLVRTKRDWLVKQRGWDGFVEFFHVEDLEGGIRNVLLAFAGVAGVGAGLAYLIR

Compound | Western blot, % of protein reduction [1] | Western blot, % of protein reduction [2] | degradation of MCL-1 protein and apoptosis of OPM2 cells compared to dMCL1-2 and C3 [3] | MCL-1 protein degradation and induction of apoptosis compared with control compounds ([3]; OPM-2 cells vs dMCL1-2, MV-4-11 cells vs C3 (FIG. 3A, 3B))
Cc1nn(C)c(C)c1-c1c(Cl)ccc2c(CCCOc3cccc4ccccc34)c(C(=O)O)n(CCN3CCN(C(=O)COc4cccc5c4C(=O)N(C4CCC(=O)NC4=O)C5=O)CC3)c12 (stereo not drawn) [Compound 204, 6-chloro-1-(2-(4-(2-((2-(2,6-dioxopiperidin-3-yl)-1,3-dioxoisoindolin-4-yl)oxy)acetyl)piperazin-1-yl)ethyl)-3-(3-(naphthalen-1-yloxy)propyl)-7-(1,3,5-trimethyl-1H-pyrazol-4-yl)-1H-indole-2-carboxylic acid] | ≥50% | ≥50% | improved potency | more potent
Cc1nn(C)c(C)c1-c1c(F)ccc2c(CCCOc3cccc4cc(F)ccc34)c(C(=O)O)n(CCN3CCN(C(=O)COc4cccc5c4C(=O)N(C4CCC(=O)NC4=O)C5=O)CC3)c12 (stereo not drawn) [Compound 215, 1-{2-[4-(2-{[2-(2,6-dioxopiperidin-3-yl)-1,3-dioxo-2,3-dihydro-1H-isoindol-4-yl]oxy}acetyl)piperazin-1-yl]ethyl}-6-fluoro-3-{3-[(6-fluoronaphthalen-1-yl)oxy]propyl}-7-(1,3,5-trimethyl-1H-pyrazol-4-yl)-1H-indole-2-carboxylic acid] | – | ≥50% | improved potency | –
Cc1nn(C)c(C)c1-c1c(Cl)ccc2c(CCCOc3cccc4cc(F)ccc34)c(C(=O)O)n(CCN3CCN(C(=O)COc4cccc5c4CN(C4CCC(=O)NC4=O)C5=O)CC3)c12 (stereo not drawn) [Compound 220, 6-chloro-1-{2-[4-(2-{[2-(2,6-dioxopiperidin-3-yl)-1-oxo-2,3-dihydro-1H-isoindol-4-yl]oxy}acetyl)piperazin-1-yl]ethyl}-3-{3-[(6-fluoronaphthalen-1-yl)oxy]propyl}-7-(1,3,5-trimethyl-1H-pyrazol-4-yl)-1H-indole-2-carboxylic acid] | ≥75% | ≥50% | improved potency | –
Cc1nn(C)c(C)c1-c1c(Cl)ccc2c(CCCOc3cccc4cc(F)ccc34)c(C(=O)O)n(CCN3CCN(C(=O)Cn4c(C)nc5c(C(=O)NC6CCC(=O)NC6=O)cccc54)CC3)c12 (stereo not drawn) [Compound 268, 6-chloro-1-{2-[4-(2-{4-[(2,6-dioxopiperidin-3-yl)carbamoyl]-2-methyl-1H-1,3-benzodiazol-1-yl}acetyl)piperazin-1-yl]ethyl}-3-{3-[(6-fluoronaphthalen-1-yl)oxy]propyl}-7-(1,3,5-trimethyl-1H-pyrazol-4-yl)-1H-indole-2-carboxylic acid] | ≥75% | ≥50% | improved potency | –
Cc1nn2c(c1-c1c(Cl)ccc3c(CCCOc4cccc5cc(F)ccc45)c(C(=O)O)n(CCN4CCN(C(=O)COc5cccc6c5CN(C5CCC(=O)NC5=O)C6=O)CC4)c13)COCC2 (stereo not drawn) [Compound 346, 6-Chloro-1-(2-(4-(2-((2-(2,6-dioxopiperidin-3-yl)-1-oxoisoindolin-4-yl)oxy)acetyl)piperazin-1-yl)ethyl)-3-(3-((6-fluoronaphthalen-1-yl)oxy)propyl)-7-(2-methyl-6,7-dihydro-4H-pyrazolo[5,1-c][1,4]oxazin-3-yl)-1H-indole-2-carboxylic acid] | ≥75% | ≥50% | improved potency | –

Reference: US20240294499A1, “TARGETED PROTEIN DEGRADATION USING BIFUNCTIONAL COMPOUNDS THAT BIND UBIQUITIN LIGASE AND TARGET MCL-1 PROTEIN” (Captor Therapeutics S.A., priority 2021, published 2024)
